Assay results published in patent US20250145606A1 (Arcus Biosciences, Inc., priority 2023, published 2025).
Where two headings read alike, the source gives them in different places.

Columns and labels:
[1] = biological target: c-Kit (Homo sapiens (Human), UniProt P10721); test: Inhibition of c-Kit kinase activity (HTRF KinEASE-TK); format: biochemical; settings: biochemical
Method in brief: (§1)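 Recombinant kinases (2 nM CSF1R and c-Kit, 10 nM PDGFRα/β, 2× working) preincubated 1 h with compound in 50 mM HEPES pH 7.4, 5 mM MgCl2 (c-Kit) or 10 mM (others), 2 mM MnCl2; 2× ATP: c-Kit 16 μM, PDGFRα 1 μM, PDGFRβ 40 μM, CSF1R 20 μM. 120 min reaction at rt; TR-FRET 665/620 nm; IC50 by 4-parameter fit.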

[2] = system: Phospho-KIT (Y703) in M07e cells; test: Phospho-KIT (Y703) cellular assay in M07e cells; format: cell-based
Method in brief: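 Serum-starved M07e cells preincubated 50 min at 37° C with 11-point half-log compound titration, then stimulated 10 min with SCF at 90.9 ng/mL final. Fixed, permeabilized cells stained for phospho-KIT Y703 and read by flow cytometry (live-gated geometric mean); IC50 by 4-parameter fit normalized to DMSO and positive control.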

[3] = biological target: PDGFRβ (Homo sapiens (Human), UniProt P09619); test: Inhibition of PDGFRβ kinase activity (HTRF KinEASE-TK); settings: biochemical
Method in brief: as §1

[4] = biological target: FLT3 (Homo sapiens (Human), UniProt P36888); test: Inhibition of FLT3 kinase activity (HTRF KinEASE-TK); format: biochemical; settings: biochemical
Protocol: Inhibition of c-Kit, PDGFRα, PDGFRβ, CSFIR and FLT3 Kinase Activity
Compounds were evaluated to determine the potency with which they inhibit the kinase activity of the following panel of tyrosine kinases: c-Kit (SignalChem, Product #: K06-11BG), PDGFRα (SignalChem, Product #: P12-18G), PDGFRβ (SignalChem, Product #: P13-11G), CSFIR (SignalChem, Product #: C74-11G) and FLT3 (Invitrogen, Product #: PR4666C). Activity was determined as a function of phosphorylated biotinylated TK peptide generated by the transfer of phosphate from ATP as measured by the use of the HTRF KinEASE-TK assay kit (Cisbio, Product #: 62TKOPEJ). Levels of phosphorylated biotinylated TK peptide (Part 61TKOBLC of KinEASE assay kit) are quantified by its capture by phosphor-TK-Antibody-Cryptate (Part of KinEASE assay kit) and XL665-labeled Streptavidin (Part 610SAXLG of KinEASE assay kit) followed by measurement of Time-Resolved Fluorescence Resonance Energy Transfer (TR-FRET) signal. On the day of the assay, compounds were solubilized in DMSO and dispensed into a 384-well white Opti-plate (PerkinElmer, catalog #6007290) to generate a 22 point 1:2 titration. Enzyme solution was prepared for each of the tyrosine kinases in 50 mM HEPES, pH 7.4, 5 mM MgCl2 for c-Kit or 10 mM MgCl2 for FLT3, CSFIR, PDGFRa and PDGFRβ, 2 mM MnCl2, 0.01% Brij-35 and 0.01% BSA. Working enzyme concentrations were prepared for c-Kit at 2 nM (2×), PDGFRa and PDGFRß at 10 nM (2×), CSFIR at 2 nM (2×) and FLT3 at 0.4 nM (2×). Five microliters of enzyme dilution of each tyrosine kinase were added to their respective 384-well white Opti-plate pre-dispensed with compound and allowed to incubate for 1 h at rt. Utilizing the same enzyme buffer recipe, 2x substrate mixes were prepared for each enzyme as follows: For c-Kit, 1.6 μM (2×) TK substrate and 16 μM (2×) ATP (Promega, catalog #V915). For PDGFRα, 3.2 μM TK substrate and 1 μM ATP. For PDGFRβ, 3.2 μM TK substrate and 40 μM ATP. For CSFIR, […] TK substrate and 20 μM ATP. For FLT3, 3.2 μM TK substrate and 100 μM ATP. Reactions were initiated by addition of 5 μL of the respective 2x substrate mix to each well of the plates containing the respective tyrosine kinase enzymes and were allowed to proceed for 120 minutes at rt, except for FLT3, the reaction time is 45 min. Following the reaction, 10 μL of detection mix consisting of 0.2 μM (2×) of Streptavidin-XL665 and 2 μM (2×) of TK-Antibody-Cryptate prepared in detection buffer (Part 62SDBRDF of KinEASE assay kit) was added and then allowed to incubate for 60 min. The TR-FRET signal was quantified by measuring the ratio of emission at 665 nm to 620 nm after excitation at 320 nm by reading on a PerkinElmer Envision multimode reader. Compound potencies (IC50 values) were determined using a standard 4-parameter non-linear regression fit.

[5] = biological target: PDGFRα (Homo sapiens (Human), UniProt P16234); test: Inhibition of PDGFRα kinase activity (HTRF KinEASE-TK); settings: biochemical
Method in brief: as §1

[6] = biological target: CSF1R (Homo sapiens (Human), UniProt P07333); test: Inhibition of CSF1R kinase activity (HTRF KinEASE-TK); settings: biochemical
Method in brief: as §1

[7] = M-07e, Phospho-KIT (Y703), M07e cells, read-out: M07e Cell IC50

Sequence of PDGFRβ (P09619 33-1106): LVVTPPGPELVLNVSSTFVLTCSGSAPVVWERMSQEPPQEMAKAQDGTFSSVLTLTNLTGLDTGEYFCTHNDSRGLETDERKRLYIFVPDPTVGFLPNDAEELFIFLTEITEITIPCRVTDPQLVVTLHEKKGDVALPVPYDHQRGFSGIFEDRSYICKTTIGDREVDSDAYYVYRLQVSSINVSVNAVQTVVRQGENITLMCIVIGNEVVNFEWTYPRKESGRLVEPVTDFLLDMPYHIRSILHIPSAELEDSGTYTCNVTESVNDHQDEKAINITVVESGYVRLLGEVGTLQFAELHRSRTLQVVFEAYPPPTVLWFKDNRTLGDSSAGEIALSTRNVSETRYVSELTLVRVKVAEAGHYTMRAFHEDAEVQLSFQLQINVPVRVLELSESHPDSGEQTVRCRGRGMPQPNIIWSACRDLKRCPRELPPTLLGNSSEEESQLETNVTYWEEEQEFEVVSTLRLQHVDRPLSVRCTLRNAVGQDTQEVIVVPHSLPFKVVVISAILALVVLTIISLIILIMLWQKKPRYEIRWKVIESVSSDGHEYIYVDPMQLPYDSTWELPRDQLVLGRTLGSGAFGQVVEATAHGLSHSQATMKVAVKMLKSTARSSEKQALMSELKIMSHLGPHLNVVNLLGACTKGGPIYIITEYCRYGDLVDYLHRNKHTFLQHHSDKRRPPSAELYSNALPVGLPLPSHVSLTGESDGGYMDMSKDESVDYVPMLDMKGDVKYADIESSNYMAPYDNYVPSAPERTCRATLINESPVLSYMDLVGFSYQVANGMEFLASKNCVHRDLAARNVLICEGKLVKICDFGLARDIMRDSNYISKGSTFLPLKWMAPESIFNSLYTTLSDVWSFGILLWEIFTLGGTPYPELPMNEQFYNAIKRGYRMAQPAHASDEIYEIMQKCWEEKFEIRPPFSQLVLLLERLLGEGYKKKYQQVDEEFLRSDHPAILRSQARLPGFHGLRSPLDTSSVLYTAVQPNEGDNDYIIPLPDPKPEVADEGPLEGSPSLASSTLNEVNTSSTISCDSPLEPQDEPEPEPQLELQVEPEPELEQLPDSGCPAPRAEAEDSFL
Sequence of PDGFRα (P16234 24-1089): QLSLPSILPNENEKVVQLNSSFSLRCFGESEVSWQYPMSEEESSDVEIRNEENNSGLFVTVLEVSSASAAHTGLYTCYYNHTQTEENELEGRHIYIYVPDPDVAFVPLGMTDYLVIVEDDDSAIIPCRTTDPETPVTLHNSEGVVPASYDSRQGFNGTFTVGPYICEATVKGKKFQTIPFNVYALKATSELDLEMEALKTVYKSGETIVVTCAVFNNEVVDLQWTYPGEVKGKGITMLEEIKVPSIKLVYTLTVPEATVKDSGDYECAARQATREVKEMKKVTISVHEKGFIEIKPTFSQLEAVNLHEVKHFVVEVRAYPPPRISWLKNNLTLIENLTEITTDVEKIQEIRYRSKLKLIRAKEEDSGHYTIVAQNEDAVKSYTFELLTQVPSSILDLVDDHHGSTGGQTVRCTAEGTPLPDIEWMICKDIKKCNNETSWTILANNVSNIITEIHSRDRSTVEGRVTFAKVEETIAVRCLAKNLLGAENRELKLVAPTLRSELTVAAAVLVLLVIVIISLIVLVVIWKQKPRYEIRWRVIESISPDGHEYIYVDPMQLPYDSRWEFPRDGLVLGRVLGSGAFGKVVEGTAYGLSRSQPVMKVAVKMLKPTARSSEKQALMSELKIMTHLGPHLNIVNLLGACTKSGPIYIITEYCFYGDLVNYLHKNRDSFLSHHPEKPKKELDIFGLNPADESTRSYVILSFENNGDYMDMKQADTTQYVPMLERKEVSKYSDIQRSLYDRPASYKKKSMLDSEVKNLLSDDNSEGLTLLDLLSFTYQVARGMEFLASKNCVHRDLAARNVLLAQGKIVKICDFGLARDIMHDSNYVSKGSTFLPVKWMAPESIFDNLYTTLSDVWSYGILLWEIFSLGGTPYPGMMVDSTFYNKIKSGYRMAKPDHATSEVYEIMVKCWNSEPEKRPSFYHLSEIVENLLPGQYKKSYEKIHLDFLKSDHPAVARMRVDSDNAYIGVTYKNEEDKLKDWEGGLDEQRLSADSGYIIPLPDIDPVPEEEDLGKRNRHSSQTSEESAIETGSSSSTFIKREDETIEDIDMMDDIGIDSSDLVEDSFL
Sequence of CSF1R (P07333 20-972): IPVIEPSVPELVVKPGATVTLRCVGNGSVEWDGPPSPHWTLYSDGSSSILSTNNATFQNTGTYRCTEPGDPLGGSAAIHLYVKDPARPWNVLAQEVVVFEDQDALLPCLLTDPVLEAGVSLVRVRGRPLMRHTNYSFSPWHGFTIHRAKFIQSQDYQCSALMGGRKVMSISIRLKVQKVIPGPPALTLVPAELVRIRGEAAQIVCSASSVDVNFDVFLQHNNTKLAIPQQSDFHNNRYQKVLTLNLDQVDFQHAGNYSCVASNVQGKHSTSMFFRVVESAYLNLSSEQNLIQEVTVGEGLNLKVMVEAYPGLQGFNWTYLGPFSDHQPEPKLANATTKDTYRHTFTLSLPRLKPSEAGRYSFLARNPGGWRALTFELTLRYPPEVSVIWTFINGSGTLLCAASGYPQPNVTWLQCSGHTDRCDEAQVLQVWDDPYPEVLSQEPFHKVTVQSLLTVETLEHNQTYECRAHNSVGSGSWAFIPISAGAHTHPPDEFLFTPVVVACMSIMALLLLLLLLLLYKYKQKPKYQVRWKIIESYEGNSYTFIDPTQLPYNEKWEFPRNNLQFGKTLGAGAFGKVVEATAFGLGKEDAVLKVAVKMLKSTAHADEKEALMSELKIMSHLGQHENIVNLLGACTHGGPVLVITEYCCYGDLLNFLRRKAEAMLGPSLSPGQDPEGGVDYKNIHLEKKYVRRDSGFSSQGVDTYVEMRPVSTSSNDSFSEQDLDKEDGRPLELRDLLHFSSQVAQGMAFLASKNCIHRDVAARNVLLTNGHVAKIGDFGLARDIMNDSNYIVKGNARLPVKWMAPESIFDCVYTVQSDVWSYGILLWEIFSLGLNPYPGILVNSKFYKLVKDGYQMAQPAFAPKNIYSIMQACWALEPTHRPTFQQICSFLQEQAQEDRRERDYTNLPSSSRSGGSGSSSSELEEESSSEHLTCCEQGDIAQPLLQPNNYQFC
Sequence of c-Kit (P10721 26-976): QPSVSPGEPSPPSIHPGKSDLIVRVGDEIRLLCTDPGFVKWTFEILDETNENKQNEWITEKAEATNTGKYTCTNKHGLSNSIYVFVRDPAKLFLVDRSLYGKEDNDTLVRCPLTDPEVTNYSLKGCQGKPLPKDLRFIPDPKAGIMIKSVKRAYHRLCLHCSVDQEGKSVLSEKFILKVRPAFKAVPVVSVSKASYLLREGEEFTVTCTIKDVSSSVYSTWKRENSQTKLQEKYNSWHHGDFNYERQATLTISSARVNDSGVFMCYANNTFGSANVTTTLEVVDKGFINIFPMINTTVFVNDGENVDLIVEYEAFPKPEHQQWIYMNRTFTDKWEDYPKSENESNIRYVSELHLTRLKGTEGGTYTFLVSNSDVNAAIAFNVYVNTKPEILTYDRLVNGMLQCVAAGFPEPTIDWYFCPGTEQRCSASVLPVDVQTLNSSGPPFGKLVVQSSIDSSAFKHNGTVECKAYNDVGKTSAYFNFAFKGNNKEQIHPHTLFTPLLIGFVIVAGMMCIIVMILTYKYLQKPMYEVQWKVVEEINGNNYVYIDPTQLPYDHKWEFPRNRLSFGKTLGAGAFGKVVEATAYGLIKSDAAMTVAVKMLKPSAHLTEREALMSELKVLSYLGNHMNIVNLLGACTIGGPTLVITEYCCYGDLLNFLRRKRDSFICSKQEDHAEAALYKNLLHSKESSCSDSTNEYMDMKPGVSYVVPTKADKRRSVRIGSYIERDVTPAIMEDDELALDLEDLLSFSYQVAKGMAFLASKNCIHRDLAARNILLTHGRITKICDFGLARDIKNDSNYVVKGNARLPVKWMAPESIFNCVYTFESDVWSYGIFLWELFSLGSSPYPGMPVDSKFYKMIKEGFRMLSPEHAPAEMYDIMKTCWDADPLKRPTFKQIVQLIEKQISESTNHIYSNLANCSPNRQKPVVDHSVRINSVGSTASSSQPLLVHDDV
Sequence of FLT3 (P36888 27-993): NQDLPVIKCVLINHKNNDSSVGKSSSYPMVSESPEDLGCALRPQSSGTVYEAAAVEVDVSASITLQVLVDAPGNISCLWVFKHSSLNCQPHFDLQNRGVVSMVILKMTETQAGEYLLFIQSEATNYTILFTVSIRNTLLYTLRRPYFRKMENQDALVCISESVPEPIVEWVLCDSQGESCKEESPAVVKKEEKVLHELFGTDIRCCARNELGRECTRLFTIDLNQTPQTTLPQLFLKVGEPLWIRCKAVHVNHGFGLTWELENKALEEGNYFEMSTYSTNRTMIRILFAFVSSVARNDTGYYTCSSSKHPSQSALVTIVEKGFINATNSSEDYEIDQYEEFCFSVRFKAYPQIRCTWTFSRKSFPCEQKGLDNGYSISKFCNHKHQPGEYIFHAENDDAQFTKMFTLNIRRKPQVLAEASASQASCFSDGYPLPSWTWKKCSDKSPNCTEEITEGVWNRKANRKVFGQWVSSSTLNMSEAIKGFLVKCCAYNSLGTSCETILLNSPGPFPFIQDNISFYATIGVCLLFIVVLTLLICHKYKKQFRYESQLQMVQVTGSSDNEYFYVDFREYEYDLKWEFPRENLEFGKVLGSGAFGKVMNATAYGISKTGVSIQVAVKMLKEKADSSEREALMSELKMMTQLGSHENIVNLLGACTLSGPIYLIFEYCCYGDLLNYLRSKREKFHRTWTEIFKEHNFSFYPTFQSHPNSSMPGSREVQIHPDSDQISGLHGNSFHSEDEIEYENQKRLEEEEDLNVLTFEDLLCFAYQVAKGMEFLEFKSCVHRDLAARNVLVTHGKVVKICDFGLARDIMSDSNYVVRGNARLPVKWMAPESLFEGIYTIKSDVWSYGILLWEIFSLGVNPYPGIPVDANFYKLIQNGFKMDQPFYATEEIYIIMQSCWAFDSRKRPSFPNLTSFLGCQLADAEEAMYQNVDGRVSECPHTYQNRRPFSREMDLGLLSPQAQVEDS

IC50 ([1]; HTRF KinEASE-TK) [nM] | IC50 ([3]; HTRF KinEASE-TK) [nM] | IC50 ([4]; HTRF KinEASE-TK) [nM] | IC50 ([5]; HTRF KinEASE-TK) [nM] | IC50 ([6]; HTRF KinEASE-TK) [nM] | IC50 [2, 7] [nM] | IC50 [1] [nM] | IC50 ([2]; M-07e, phospho-KIT (Y703), SCF-stimulated M07e cells, read-out: M07e Cell IC50) [nM] | IC50 [3] [nM] | IC50 [4] [nM] | IC50 [5] [nM] | IC50 [6] [nM] | IC50 ([2]; M-07e, M07e cells, read-out: Phospho-KIT (Y703) cellular IC50) [nM] | Structure (SMILES) | IC50 ([2]; read-out: M07e Cell IC50) [nM]
< 100 | 100 to 1000 | > 1000 | 100 to 1000 | 100 to 1000 | < 100 |  |  |  |  |  |  |  | CCc1ccc(NC(=O)c2cc(NC(=O)c3cnc(N)s3)c(C)cc2F)nc1 [Example 255, 2-Amino-N-[5-[(5-ethylpyridin-2-yl)carbamoyl]-4-fluoro-2-methylphenyl]-1,3-thiazole-5-carboxamide] | 
< 100 | 100 to 1000 | > 1000 | 100 to 1000 | 100 to 1000 | < 100 |  |  |  |  |  |  |  | COc1ccc(NC(=O)c2cc(NC(=O)c3cnc(N)s3)c(C)cc2F)cc1 [Example 230, 2-Amino-N-[4-fluoro-5-[(4-methoxyphenyl)carbamoyl]-2-methylphenyl]-1,3-thiazole-5-carboxamide] | 
 |  |  |  |  |  | < 100 | < 100 | < 100 | > 1000 | 100 to 1000 | 100 to 1000 |  | Cc1cc(F)c(C(=O)Nc2ccc(CC3CC3)cn2)cc1NC(=O)c1cnc(N)s1 [Example 7, 2-Amino-N-[5-[[5-(cyclopropylmethyl)pyridin-2-yl]carbamoyl]-4-fluoro-2-methylphenyl]-1,3-thiazole-5-carboxamide] | 
< 100 | 100 to 1000 | > 1000 | 100 to 1000 | 100 to 1000 | < 100 |  |  |  |  |  |  |  | Cc1cc(F)c(C(=O)Nc2ccc(C3CC3)cn2)cc1NC(=O)c1cnc(N)s1 [Example 130, 2-Amino-N-[5-[(5-cyclopropylpyridin-2-yl)carbamoyl]-4-fluoro-2-methylphenyl]-1,3-thiazole-5-carboxamide] | 
< 100 | 100 to 1000 | > 1000 | > 1000 | > 1000 | < 100 |  |  |  |  |  |  |  | Cc1cc(F)c(C(=O)NCC2(F)CCC2)cc1NC(=O)c1cnc(N)s1 [Example 192, 2-amino-N-[4-fluoro-5-[(1-fluorocyclobutyl)methylcarbamoyl]-2-methylphenyl]-1,3-thiazole-5-carboxamide] | 
< 100 | > 1000 | > 1000 | > 1000 | 100 to 1000 | < 100 |  |  |  |  |  |  |  | Cc1cc(F)c(C(=O)Nc2ccc3c(n2)CCOC3)cc1NC(=O)c1cnc(N)s1 [Example 115, 2-Amino-N-[5-(7,8-dihydro-5H-pyrano[4,3-b]pyridin-2-ylcarbamoyl)-4-fluoro-2-methylphenyl]-1,3-thiazole-5-carboxamide] | 
< 100 | > 1000 | > 1000 | > 1000 | > 1000 | < 100 |  |  |  |  |  |  |  | Cc1cc(F)c(C(=O)Nc2ccn(-c3ccccc3)n2)cc1NC(=O)c1cnc(N)s1 [Example 172, 2-Amino-N-[4-fluoro-2-methyl-5-[(1-phenylpyrazol-3-yl)carbamoyl]phenyl]-1,3-thiazole-5-carboxamide] | 
< 100 | 100 to 1000 | > 1000 | > 1000 | 100 to 1000 | < 100 |  |  |  |  |  |  |  | Nc1ncc(C(=O)Nc2cc(C(=O)Nc3ccc(C(F)F)cn3)c(F)cc2Cl)s1 [Example 206, 2-Amino-N-[2-chloro-5-[[5-(difluoromethyl)pyridin-2-yl]carbamoyl]-4-fluorophenyl]-1,3-thiazole-5-carboxamide] | 
< 100 | > 1000 | > 1000 | > 1000 | > 1000 | < 100 |  |  |  |  |  |  |  | Cc1ncc(C(=O)Nc2cc(C(=O)Nc3ccn(CC(C)C)n3)c(F)cc2C)s1 [Example 64, N-[4-fluoro-2-methyl-5-[[1-(2-methylpropyl)pyrazol-3-yl]carbamoyl]phenyl]-2-methyl-1,3-thiazole-5-carboxamide] | 
< 100 | 100 to 1000 | > 1000 | > 1000 | 100 to 1000 |  |  |  |  |  |  |  | < 100 | COC1(c2ccc(NC(=O)c3cc(NC(=O)c4cnc(N)s4)c(C)cc3F)nc2)CC1 [Example 260, 2-Amino-N-[4-fluoro-5-[[5-(1-methoxycyclopropyl)pyridin-2-yl]carbamoyl]-2-methylphenyl]-1,3-thiazole-5-carboxamide] | 
< 100 | 100 to 1000 | > 1000 | 100 to 1000 | 100 to 1000 | < 100 |  |  |  |  |  |  |  | Nc1ncc(C(=O)Nc2cc(C(=O)Nc3cnc(C4CC4)nc3)c(F)cc2Cl)s1 [Example 204, 2-Amino-N-[2-chloro-5-[(2-cyclopropylpyrimidin-5-yl)carbamoyl]-4-fluorophenyl]-1,3-thiazole-5-carboxamide] | 
< 100 | 100 to 1000 | > 1000 | 100 to 1000 | 100 to 1000 | < 100 |  |  |  |  |  |  |  | Cc1cc(F)c(C(=O)Nc2ccc(Cl)cc2)cc1NC(=O)c1cnc(N)s1 [Example 231, 2-Amino-N-[5-[(4-chlorophenyl)carbamoyl]-4-fluoro-2-methylphenyl]-1,3-thiazole-5-carboxamide] | 
< 100 | > 1000 | > 1000 | > 1000 | > 1000 | < 100 |  |  |  |  |  |  |  | CCOCc1ccc(NC(=O)c2cc(NC(=O)c3cnc(N)s3)c(C)cc2F)nc1 [Example 196, 2-Amino-N-[5-[[5-(ethoxymethyl)pyridin-2-yl]carbamoyl]-4-fluoro-2-methylphenyl]-1,3-thiazole-5-carboxamide] | 
< 100 | > 1000 | > 1000 | > 1000 | > 1000 | < 100 |  |  |  |  |  |  |  | Nc1ncc(C(=O)Nc2cc(C(=O)Nc3ccc(OC(F)F)cn3)c(F)cc2F)s1 [Example 219, 2-Amino-N-[5-[[5-(difluoromethoxy)pyridin-2-yl]carbamoyl]-2,4-difluorophenyl]-1,3-thiazole-5-carboxamide] | 
< 100 | 100 to 1000 | > 1000 | > 1000 | > 1000 | < 100 |  |  |  |  |  |  |  | Cc1cc(F)c(C(=O)Nc2ccc(OCC3CC3)cn2)cc1NC(=O)c1cnc(N)s1 [Example 143, 2-Amino-N-[5-[[5-(cyclopropylmethoxy)pyridin-2-yl]carbamoyl]-4-fluoro-2-methylphenyl]-1,3-thiazole-5-carboxamide] | 
< 100 | > 1000 | > 1000 | > 1000 |  | < 100 |  |  |  |  |  |  |  | COCCn1ccc(NC(=O)c2cc(NC(=O)c3cnc(N)s3)c(C)cc2F)n1 [Example 154, 2-Amino-N-[4-fluoro-5-[[1-(2-methoxyethyl)pyrazol-3-yl]carbamoyl]-2-methylphenyl]-1,3-thiazole-5-carboxamide] | 

Structure (SMILES) | IC50 ([1]; HTRF KinEASE-TK) [nM] | IC50 ([3]; HTRF KinEASE-TK) [nM] | IC50 ([4]; HTRF KinEASE-TK) [nM] | IC50 ([5]; HTRF KinEASE-TK) [nM] | IC50 ([6]; HTRF KinEASE-TK) [nM] | IC50 [2, 7] [nM] | IC50 [1] [nM] | IC50 ([2]; M-07e, phospho-KIT (Y703), SCF-stimulated M07e cells, read-out: M07e Cell IC50) [nM] | IC50 [3] [nM] | IC50 [4] [nM] | IC50 [5] [nM] | IC50 [6] [nM] | IC50 ([2]; M-07e, M07e cells, read-out: Phospho-KIT (Y703) cellular IC50) [nM] | IC50 ([2]; read-out: M07e Cell IC50) [nM]
COCC1(c2ccc(NC(=O)c3cc(NC(=O)c4cnc(N)s4)c(C)cc3F)nc2)CC1 [Example 244] | < 100 | 100 to 1000 | > 1000 | > 1000 | 100 to 1000 |  |  |  |  |  |  |  |  | < 100
